Data on six molecules can be found in US9096593B2, “Compounds and methods for kinase modulation, and indications therefor” (Plexxikon Inc., priority 2009, dated 2015).

Where two headings read alike, the source gives them in different places.

Series [1] in a line: Turbidity assay of relative solubility in aqueous buffers. As to conditions: for turbidity threshold (L, M, H) 1.4: pH 1.4 as headed (method: SGF pH 1.5); for turbidity threshold (L, M, H) 4.5: pH 4.5 (SIF); for turbidity threshold (L, M, H) 6.8: pH 6.8 (SIF); for turbidity threshold (L, M, H) 7.4: pH 7.4 (HEPES). It is filed as physicochemical. The method, boiled down:
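DMSO stocks (25 mM) were serially diluted 1:1 and spiked into SGF pH 1.5 (0.5M NaCl), SIF pH 4.5 and 6.8 (0.05M NaH2PO4) or HEPES pH 7.4 (10 mM HEPES, 150 mM NaCl). Absorbance was read at 490, 535 and 650 nm. Value is the concentration crossing OD 0.01, averaged over the three wavelengths.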

The target in a further series is Flt-3 kinase (Homo sapiens (Human), UniProt P36888). Description: Flt-3 kinase biochemical activity assay (AlphaScreen, biotin-(E4Y)10 phosphorylation). As to conditions: 100 μM ATP. On the procedure: In one assay the biochemical activity IC50 values are determined with respect to inhibition of Flt-3 kinase activity, where inhibition of phosphorylation of a peptide substrate is measured as a function of compound concentration. Compounds to be tested, dissolved in DMSO (1 μL), are added to a white 384-well plate (Costar #3705). Working stocks of Flt-3 kinase (Invitrogen), biotin-(E4Y)10 substrate (Upstate Biotech, Cat#12-440), and ATP (Sigma, Cat#A-3377) are prepared in 25 mM Hepes pH 7.5, 5 mM MgCl2, 5 mM MnCl2, 1 mM DTT, and 0.01% Tween-20. All components are added to the 384-well plate for a final concentration of 1 ng/well Flt-3, 30 nM biotin-(E4Y)10 and 100 μM ATP in a volume of 20 μL. Each sample is at 5% DMSO. The plate is then incubated for 1 hour at room temperature. Just before use, working stocks of donor and acceptor beads from the AlphaScreen PY20 Detection Kit (PerkinElmer, Cat#676601M) are prepared in 25 mM Hepes pH 7.5, pH 7.4, 100 mM EDTA. 0.3% BSA. To stop the reaction, the plate is uncovered in the dark and 5 μL of Donor Beads solution (Streptavidin beads) is added to each well. The plate is incubated at room temperature for 20 minutes. Five microliters of Acceptor Beads solution (PY20 coated beads) are then added to each well. The final concentration of each bead is 10 μg/mL. The plates are incubated at room temperature for 60 minutes. Fluorescence signal is recorded on the Envision reader. Phosphorylated substrate results in binding of the PY20 antibody and association of the donor and acceptor beads such that signal correlates with kinase activity. The signal vs. compound concentration is used to determine the IC50.
Flt-3 kinase, sequence (P36888 27-993): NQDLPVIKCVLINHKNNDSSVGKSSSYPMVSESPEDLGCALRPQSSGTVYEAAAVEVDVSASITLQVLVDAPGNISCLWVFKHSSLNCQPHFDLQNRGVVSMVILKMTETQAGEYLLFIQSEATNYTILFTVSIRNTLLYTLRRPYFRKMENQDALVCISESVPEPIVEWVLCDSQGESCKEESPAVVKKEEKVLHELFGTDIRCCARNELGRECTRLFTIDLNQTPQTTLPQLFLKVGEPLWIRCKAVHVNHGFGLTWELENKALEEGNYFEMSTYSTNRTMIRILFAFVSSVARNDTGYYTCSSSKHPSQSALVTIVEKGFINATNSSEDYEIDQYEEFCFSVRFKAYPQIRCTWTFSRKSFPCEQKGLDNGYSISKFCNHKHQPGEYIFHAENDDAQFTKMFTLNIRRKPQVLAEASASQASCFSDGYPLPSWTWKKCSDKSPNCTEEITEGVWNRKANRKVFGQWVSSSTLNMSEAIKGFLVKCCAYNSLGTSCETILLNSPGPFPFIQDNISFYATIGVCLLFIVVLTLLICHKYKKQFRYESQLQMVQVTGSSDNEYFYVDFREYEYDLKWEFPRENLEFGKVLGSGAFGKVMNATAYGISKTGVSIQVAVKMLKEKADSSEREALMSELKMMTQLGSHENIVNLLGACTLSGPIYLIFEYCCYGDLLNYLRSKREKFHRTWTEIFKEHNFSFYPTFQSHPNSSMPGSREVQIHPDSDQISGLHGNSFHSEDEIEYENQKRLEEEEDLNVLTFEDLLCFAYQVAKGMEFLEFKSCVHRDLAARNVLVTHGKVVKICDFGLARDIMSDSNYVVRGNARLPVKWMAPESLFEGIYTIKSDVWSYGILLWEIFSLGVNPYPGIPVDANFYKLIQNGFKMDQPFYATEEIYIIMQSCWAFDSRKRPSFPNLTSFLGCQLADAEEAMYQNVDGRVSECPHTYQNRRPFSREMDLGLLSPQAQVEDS

The target in another series is CYP2C19 (Homo sapiens (Human), UniProt P33261). Description: CYP enzyme inhibition, fluorescent substrate. The method, boiled down: (§1)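 […]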
CYP2C19, sequence (P33261 whole entry): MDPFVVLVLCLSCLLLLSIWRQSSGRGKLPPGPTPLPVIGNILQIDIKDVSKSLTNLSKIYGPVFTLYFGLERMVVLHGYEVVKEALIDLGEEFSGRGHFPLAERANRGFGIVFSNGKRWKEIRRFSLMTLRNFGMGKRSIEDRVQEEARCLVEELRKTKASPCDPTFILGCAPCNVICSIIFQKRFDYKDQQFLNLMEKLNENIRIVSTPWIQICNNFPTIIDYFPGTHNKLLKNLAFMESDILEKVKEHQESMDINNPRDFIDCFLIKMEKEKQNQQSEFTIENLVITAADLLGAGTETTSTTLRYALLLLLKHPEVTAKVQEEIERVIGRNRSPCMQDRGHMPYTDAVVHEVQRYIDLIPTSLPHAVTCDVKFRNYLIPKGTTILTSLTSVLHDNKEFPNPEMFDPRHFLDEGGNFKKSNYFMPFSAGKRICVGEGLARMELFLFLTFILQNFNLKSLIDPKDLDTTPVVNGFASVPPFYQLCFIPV

The next series addresses CYP3A4(BQ) (Homo sapiens (Human), UniProt P08684). Description: CYP enzyme inhibition, fluorescent substrate. The method, boiled down: as §1
Another series concerns the target CYP2C9 (Homo sapiens (Human), UniProt P11712). The series is described as follows: CYP enzyme inhibition, fluorescent substrate. The method, boiled down: as §1
The target in a further series is CYP1A2 (Homo sapiens (Human), UniProt P05177). Description: CYP enzyme inhibition, fluorescent substrate. The note with it: human, 15 min.
CYP1A2, sequence (P05177 whole entry): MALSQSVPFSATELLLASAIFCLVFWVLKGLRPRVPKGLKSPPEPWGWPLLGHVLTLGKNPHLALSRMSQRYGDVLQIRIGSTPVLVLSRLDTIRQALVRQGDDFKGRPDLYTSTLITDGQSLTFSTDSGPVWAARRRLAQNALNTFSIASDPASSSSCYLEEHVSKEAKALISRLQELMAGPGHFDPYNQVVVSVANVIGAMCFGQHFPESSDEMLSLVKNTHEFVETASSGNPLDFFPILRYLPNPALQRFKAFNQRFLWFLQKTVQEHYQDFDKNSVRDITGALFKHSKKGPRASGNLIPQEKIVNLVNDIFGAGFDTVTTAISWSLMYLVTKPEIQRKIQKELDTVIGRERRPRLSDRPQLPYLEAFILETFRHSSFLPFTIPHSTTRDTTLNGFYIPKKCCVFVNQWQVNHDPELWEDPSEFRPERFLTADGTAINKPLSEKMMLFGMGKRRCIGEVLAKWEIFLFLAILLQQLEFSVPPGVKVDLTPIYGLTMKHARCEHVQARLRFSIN
For another series, the target named is CYP2D6 (Homo sapiens (Human), UniProt P10635). Description: CYP enzyme inhibition, fluorescent substrate. As to conditions: read-out: Cyp IC50 (μM) 2D6.
CYP2D6, sequence (P10635 whole entry): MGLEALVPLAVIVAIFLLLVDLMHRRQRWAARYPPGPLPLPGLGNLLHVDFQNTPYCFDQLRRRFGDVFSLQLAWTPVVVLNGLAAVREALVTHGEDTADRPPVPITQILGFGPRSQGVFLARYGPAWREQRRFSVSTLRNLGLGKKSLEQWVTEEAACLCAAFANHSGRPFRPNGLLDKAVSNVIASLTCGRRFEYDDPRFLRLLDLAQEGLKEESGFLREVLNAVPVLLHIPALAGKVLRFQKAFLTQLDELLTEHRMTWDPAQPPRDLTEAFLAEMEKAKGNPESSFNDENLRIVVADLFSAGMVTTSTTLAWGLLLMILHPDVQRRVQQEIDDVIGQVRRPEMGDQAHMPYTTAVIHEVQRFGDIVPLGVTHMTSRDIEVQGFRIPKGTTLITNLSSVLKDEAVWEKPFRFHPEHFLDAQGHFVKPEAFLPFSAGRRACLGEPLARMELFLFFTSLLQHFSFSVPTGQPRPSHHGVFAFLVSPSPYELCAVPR
Another series concerns the target CYP3A4(BFC) (Homo sapiens (Human), UniProt P08684). The series is described as follows: CYP enzyme inhibition, fluorescent substrate. The method, boiled down:
as §1

Setting [2] is: read-out: Cyp IC50 (μM) 3A4(BQ), BQ substrate.
[3] abbreviates: read-out: Cyp IC50 (μM) 3A4(BFC), BFC substrate.

CYP2C9, sequence (P11712 whole entry): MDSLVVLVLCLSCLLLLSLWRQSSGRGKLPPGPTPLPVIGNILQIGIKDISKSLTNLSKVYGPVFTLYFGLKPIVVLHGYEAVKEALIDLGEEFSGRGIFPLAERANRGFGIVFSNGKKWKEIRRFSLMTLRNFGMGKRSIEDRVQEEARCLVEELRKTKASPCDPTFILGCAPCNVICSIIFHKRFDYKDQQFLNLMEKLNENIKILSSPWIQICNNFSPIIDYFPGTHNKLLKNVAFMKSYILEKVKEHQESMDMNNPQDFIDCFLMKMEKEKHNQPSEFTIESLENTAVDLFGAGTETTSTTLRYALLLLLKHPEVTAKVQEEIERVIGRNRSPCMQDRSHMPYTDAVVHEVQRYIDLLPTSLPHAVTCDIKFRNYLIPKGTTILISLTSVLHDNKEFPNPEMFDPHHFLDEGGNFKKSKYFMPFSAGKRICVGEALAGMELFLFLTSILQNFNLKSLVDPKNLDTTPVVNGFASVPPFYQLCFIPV
CYP3A4(BFC), sequence (P08684 whole entry): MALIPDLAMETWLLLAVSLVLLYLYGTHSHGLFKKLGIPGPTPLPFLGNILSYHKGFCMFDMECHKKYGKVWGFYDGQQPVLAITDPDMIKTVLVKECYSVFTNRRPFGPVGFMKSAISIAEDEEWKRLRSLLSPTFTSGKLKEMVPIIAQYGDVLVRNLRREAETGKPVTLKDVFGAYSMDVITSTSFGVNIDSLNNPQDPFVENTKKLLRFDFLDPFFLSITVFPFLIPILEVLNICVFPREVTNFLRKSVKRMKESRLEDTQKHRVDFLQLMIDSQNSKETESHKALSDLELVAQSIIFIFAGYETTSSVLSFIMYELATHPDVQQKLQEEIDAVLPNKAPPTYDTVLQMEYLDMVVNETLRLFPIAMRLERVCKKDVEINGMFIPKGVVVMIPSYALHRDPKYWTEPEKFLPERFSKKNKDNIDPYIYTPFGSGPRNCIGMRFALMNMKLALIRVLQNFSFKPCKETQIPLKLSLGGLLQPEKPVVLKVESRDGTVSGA
CYP3A4(BQ), sequence (P08684 whole entry): as above

With `Cc1cnc2[nH]cc(Cc3ccc(NCc4ccc(C(F)(F)F)nc4)nc3)c2c1` [Compound P-2019, [5-(5-Methyl-1H-pyrrolo[2,3-b]pyridin-3-ylmethyl)-pyridin-2-yl]-(6-trifluoromethyl-pyridin-3-ylmethyl)-amine], the “turbidity threshold (L, M, H) 1.4” value in series [1] is given as “H (high solubility if the threshold concentration is >250 μM)”. The “turbidity threshold (L, M, H) 4.5” value in series [1] is reported as “M (moderate solubility if the threshold concentration is 31.3 μM to 250 μM)”. Further, the “turbidity threshold (L, M, H) 6.8” value in series [1] was “M (moderate solubility if the threshold concentration is 31.3 μM to 250 μM)”. In addition, the “turbidity threshold (L, M, H) 7.4” value in series [1] was “L (low solubility if the threshold concentration is <31.3 μM)”. Besides, the IC50 at Flt-3 kinase is less than 0.1 µM; against CYP2C19 it was 5 to 10 µM; on CYP3A4(BQ) (setting [2]) it was more than 10 µM; on CYP2C9 (human, CYP2C9 enzyme (BD Biosciences), 45 min), less than 5 µM; against CYP1A2, more than 10 µM; at CYP2D6 it was less than 5 µM. Further, the half-maximal inhibitory concentration (IC50) on CYP3A4(BFC) (setting [3]) was less than 5 µM.
For `COc1ccc(CNc2ccc(Cc3c[nH]c4ncc(C)cc34)c(F)n2)cn1` [Compound P-2029, [6-Fluoro-5-(5-methyl-1H-pyrrolo[2,3-b]pyridin-3-ylmethyl)-pyridin-2-yl]-(6-methoxy-pyridin-3-ylmethyl)-amine], the “turbidity threshold (L, M, H) 1.4” value in series [1] is recorded as “H (high solubility if the threshold concentration is >250 μM)”. Further, in series [1], the “turbidity threshold (L, M, H) 4.5” value is “M (moderate solubility if the threshold concentration is 31.3 μM to 250 μM)”. In addition, the “turbidity threshold (L, M, H) 6.8” value in series [1] is listed as “M (moderate solubility if the threshold concentration is 31.3 μM to 250 μM)”. Further, the “turbidity threshold (L, M, H) 7.4” value in series [1] is “M (moderate solubility if the threshold concentration is 31.3 μM to 250 μM)”. For the same molecule, the 50% inhibitory concentration (IC50) is less than 0.1 µM at Flt-3 kinase; less than 5 µM on CYP2C19 (read-out: Cyp IC50 (μM) 2C19); 5 to 10 µM on CYP3A4(BQ); less than 5 µM on CYP2C9 (read-out: Cyp IC50 (μM) 2C9); more than 10 µM against CYP1A2; more than 10 µM at CYP2D6. The molecule further displayed an IC50 against CYP3A4(BFC) of 5 to 10 µM.
Turning to `COc1cnc2[nH]cc(Cc3ccc(NCc4ccc(OC)nc4)nc3F)c2c1` [Compound P-2030, [6-Fluoro-5-(5-methoxy-1H-pyrrolo[2,3-b]pyridin-3-ylmethyl)-pyridin-2-yl]-(6-methoxy-pyridin-3-ylmethyl)-amine], the “turbidity threshold (L, M, H) 1.4” value in series [1] was “H (high solubility if the threshold concentration is >250 μM)”. Further, in series [1], the “turbidity threshold (L, M, H) 4.5” value was “M (moderate solubility if the threshold concentration is 31.3 μM to 250 μM)”. Moreover, in series [1], the “turbidity threshold (L, M, H) 6.8” value is “M (moderate solubility if the threshold concentration is 31.3 μM to 250 μM)”. Moreover, in series [1], the “turbidity threshold (L, M, H) 7.4” value is listed as “L (low solubility if the threshold concentration is <31.3 μM)”. The IC50 at Flt-3 kinase is less than 0.1 µM; on CYP2C19 (read-out: Cyp IC50 (μM) 2C19), less than 5 µM; on CYP3A4(BQ) (setting [2]) it was more than 10 µM; at CYP2C9 (read-out: Cyp IC50 (μM) 2C9), less than 5 µM; against CYP1A2, more than 10 µM; on CYP2D6 it was more than 10 µM. Besides, the 50% inhibitory concentration (IC50) on CYP3A4(BFC) was 5 to 10 µM.
As for `COc1ccnc2[nH]cc(Cc3ccc(NCc4ccc(Cl)cc4)nc3F)c12` [Compound P-2037, (4-Chloro-benzyl)-[6-fluoro-5-(4-methoxy-1H-pyrrolo[2,3-b]pyridin-3-ylmethyl)-pyridin-2-yl]-amine], the “turbidity threshold (L, M, H) 1.4” value in series [1] is given as “M (moderate solubility if the threshold concentration is 31.3 μM to 250 μM)”. Moreover, the “turbidity threshold (L, M, H) 4.5” value in series [1] was “L (low solubility if the threshold concentration is <31.3 μM)”. The “turbidity threshold (L, M, H) 6.8” value in series [1] is “L (low solubility if the threshold concentration is <31.3 μM)”. For the same molecule, the “turbidity threshold (L, M, H) 7.4” value in series [1] is on record as “L (low solubility if the threshold concentration is <31.3 μM)”. The IC50 against Flt-3 kinase is less than 0.1 µM; at CYP2C19 (read-out: Cyp IC50 (μM) 2C19) it was less than 5 µM; at CYP3A4(BQ) (setting [2]) it was more than 10 µM; at CYP2C9 (read-out: Cyp IC50 (μM) 2C9) it was less than 5 µM; on CYP1A2, more than 10 µM; at CYP2D6 it was more than 10 µM. At CYP3A4(BFC), this molecule returned a 50% inhibitory concentration (IC50) of 5 to 10 µM.
With `COc1ccc(CNc2ncc(Cc3c[nH]c4ncc(C)cc34)cn2)cn1` [Compound P-2057, (6-Methoxy-pyridin-3-ylmethyl)-[5-(5-methyl-1H-pyrrolo[2,3-b]pyridin-3-ylmethyl)-pyrimidin-2-yl]-amine], the “turbidity threshold (L, M, H) 1.4” value in series [1] is recorded as “H (high solubility if the threshold concentration is >250 μM)”. Moreover, the “turbidity threshold (L, M, H) 4.5” value in series [1] is reported as “L (low solubility if the threshold concentration is <31.3 μM)”. The “turbidity threshold (L, M, H) 6.8” value in series [1] is recorded as “L (low solubility if the threshold concentration is <31.3 μM)”. In addition, in series [1], the “turbidity threshold (L, M, H) 7.4” value was “M (moderate solubility if the threshold concentration is 31.3 μM to 250 μM)”. Besides, the IC50 was less than 0.1 µM against Flt-3 kinase; 5 to 10 µM at CYP2C19; more than 10 µM on CYP3A4(BQ) (setting [2]); 5 to 10 µM against CYP2C9; more than 10 µM at CYP1A2; more than 10 µM on CYP2D6. Also, the 50% inhibitory concentration (IC50) on CYP3A4(BFC) (setting [3]) was more than 10 µM.
In the case of `COc1ncc(CNc2ccc(Cc3c[nH]c4ncc(Cl)cc34)c(F)n2)cc1F` [Compound P-2165, [5-(5-Chloro-1H-pyrrolo[2,3-b]pyridin-3-ylmethyl)-6-fluoro-pyridin-2-yl]-(5-fluoro-6-methoxy-pyridin-3-ylmethyl)-amine], the “turbidity threshold (L, M, H) 1.4” value in series [1] was “L (low solubility if the threshold concentration is <31.3 μM)”. The “turbidity threshold (L, M, H) 4.5” value in series [1] is “L (low solubility if the threshold concentration is <31.3 μM)”. Besides, the “turbidity threshold (L, M, H) 6.8” value in series [1] is “L (low solubility if the threshold concentration is <31.3 μM)”. Also, the “turbidity threshold (L, M, H) 7.4” value in series [1] is “L (low solubility if the threshold concentration is <31.3 μM)”. Also, the IC50 against Flt-3 kinase was less than 0.1 µM; on CYP2C19 (read-out: Cyp IC50 (μM) 2C19) it was more than 10 µM; on CYP3A4(BQ) (setting [2]), more than 10 µM; at CYP2C9 (read-out: Cyp IC50 (μM) 2C9), more than 10 µM; against CYP1A2, more than 10 µM; at CYP2D6, more than 10 µM. At CYP3A4(BFC) (setting [3]), the IC50 was more than 10 µM.

The term IC50 denotes the midpoint of a concentration-inhibition curve.
